Common to all, as to type: functional, cell-based
In one test the test system is NIH3T3. Briefly: Antiproliferative activity against mouse NIH/3T3 cells after 48 hrs by MTT assay. To be noted: NIH3T3, 48 h. (Tetrazolium dyes change colour on reduction, which living cells bring about.)
The subject of a further test is MCF7. Briefly: Antiproliferative activity against human MCF7 cells after 48 hrs by MTT assay. To be noted: MCF7, 48 h.
The test system of a further test is DU-145. In words: Antiproliferative activity against human DU145 cells after 48 hrs by MTT assay. To be noted: DU-145, 48 h.
The test system of a further test is A549. In words: Antiproliferative activity against human A549 cells after 48 hrs by MTT assay. To be noted: A549, 48 h.
Another test deals with HeLa. Briefly: Antiproliferative activity against human HeLa cells after 48 hrs by MTT assay.

Each structure is given as a SMILES string.

This is an account of results in ChEMBL document CHEMBL4138165, “Design, synthesis and biological evaluation of new β-carboline-bisindole compounds as DNA binding, photocleavage agents and topoisomerase I inhibitors” (Eur J Med Chem, 2018).

The term IC50 denotes the concentration that gives 50% inhibition. Read a low IC50 as greater potency. On to `COc1ccc2[nH]cc(C(c3cc4c([nH]c5ccccc54)c(-c4cc(OC)c(OC)c(OC)c4)n3)c3c[nH]c4ccccc34)c2c1` (configuration not stated), for which the IC50 in the test on NIH3T3 stood at 100 µM; in the test with MCF7 it was 44.2 µM; in the test on DU-145 it was 19.5 µM; in the test with A549, 20.4 µM; with HeLa, 39.8 µM.

As to `Cc1ccc(-c2nc(C(c3c(C)[nH]c4ccc([N+](=O)[O-])cc34)c3c(C)[nH]c4ccc([N+](=O)[O-])cc34)cc3c2[nH]c2ccccc23)cc1`, the IC50 in the test on NIH3T3 was 52.1 µM; in the test on MCF7, 22.8 µM; in the test with DU-145, 15 µM; with A549, 21.1 µM; with HeLa, 28.1 µM.

As to `Cc1ccc(-c2nc(C(c3c[nH]c4ccc(C#N)cc34)c3c[nH]c4ccc(C#N)cc34)cc3c2[nH]c2ccccc23)cc1`, the IC50 was 60.6 µM in the test on NIH3T3; 17.4 µM in the test with MCF7; 7.32 µM in the test on DU-145; 11 µM in the test with A549; 16 µM with HeLa.

With `COc1ccc(-c2nc(C(c3c[nH]c4ccccc34)c3c[nH]c4ccc(C#N)cc34)cc3c2[nH]c2ccccc23)cc1` (configuration not stated), the IC50 in the test with NIH3T3 amounted to 119 µM; in the test with MCF7, 28.9 µM; in the test on DU-145 it was 14.8 µM; in the test with A549, 13.7 µM; with HeLa, 30.9 µM.

With `COc1ccc2c(c1)[nH]c1c(C)nccc12` [HARMINE], the IC50 was 10.8 µM in the test with MCF7, 12 µM in the test on DU-145, 7.76 µM in the test on A549 and 16.2 µM in the test with HeLa.

Turning to `COc1cc(-c2nc(C(c3c[nH]c4ccccc34)c3c[nH]c4ccccc34)cc3c2[nH]c2ccccc23)cc(OC)c1OC`, the 50% inhibitory concentration (IC50) was 92.9 µM with NIH3T3; 34.9 µM in the test with MCF7; 12.8 µM in the test with DU-145; 22.7 µM in the test on A549; 21.4 µM with HeLa.

For the compound `COc1ccc(-c2nc(C(c3c[nH]c4ccc(OC)cc34)c3c[nH]c4ccc(OC)cc34)cc3c2[nH]c2ccccc23)cc1`, the IC50 was 102 µM with NIH3T3; 29.9 µM with MCF7; 16.3 µM with DU-145; 18.1 µM in the test on A549; 32.5 µM in the test on HeLa.

As to `Cc1[nH]c2ccc([N+](=O)[O-])cc2c1C(c1cc2c([nH]c3ccccc32)c(-c2ccc(F)cc2)n1)c1c(C)[nH]c2ccc([N+](=O)[O-])cc12`, the IC50 in the test on NIH3T3 was determined as 102 µM; in the test on MCF7, 27.7 µM; in the test on DU-145 it was 16.9 µM; with A549 it was 18.6 µM; in the test on HeLa, 31.5 µM.

In the case of `COc1cccc2c1C(=O)c1c(O)c3c(c(O)c1C2=O)C[C@@](O)(C(=O)CO)C[C@@H]3O[C@H]1C[C@H](N)[C@H](O)[C@H](C)O1` [DOXORUBICIN], the IC50 in the test with MCF7 was 2.18 µM; in the test with DU-145, 2.13 µM; in the test on HeLa, 1.73 µM.

Take `Fc1ccc(-c2nc(C(c3c[nH]c4ccc(Br)cc34)c3c[nH]c4ccc(Br)cc34)cc3c2[nH]c2ccccc23)cc1`: the IC50 was found to be 90.1 µM with NIH3T3; 18.3 µM in the test with MCF7; 7.74 µM with DU-145; 8.3 µM with A549; 9.5 µM with HeLa.

`N#Cc1ccc2[nH]cc(C(c3cc4c([nH]c5ccccc54)c(-c4ccc(F)cc4)n3)c3c[nH]c4ccccc34)c2c1` (configuration not stated): the IC50 with NIH3T3 stood at 58.1 µM; with MCF7 it was 26.3 µM; with DU-145, 2.34 µM; in the test on A549, 15.7 µM; with HeLa, 17.1 µM.

As to `Cc1ccc(-c2nc(C(c3c[nH]c4ccc([N+](=O)[O-])cc34)c3c[nH]c4ccc([N+](=O)[O-])cc34)cc3c2[nH]c2ccccc23)cc1`, the IC50 turned out to be 145 µM with NIH3T3; 16.9 µM in the test with MCF7; 6 µM with DU-145; 6.92 µM with A549; 10.9 µM in the test with HeLa.

For `COc1cc(-c2nc(C(c3c[nH]c4ccc(Br)cc34)c3c[nH]c4ccc(Br)cc34)cc3c2[nH]c2ccccc23)cc(OC)c1OC`, the IC50 with NIH3T3 came out at 64.3 µM; with MCF7 it was 33.4 µM; in the test with DU-145 it was 14.7 µM; with A549, 21.8 µM; in the test on HeLa, 15.8 µM.
